Assay [1] addresses T1, hKv1.3 (Homo sapiens, UniProt P22001).
T1 construct: expressed in transfected cells; host or cells: CHO-K1
Kind of assay: voltage-clamp of K+ currents in CHO-K1 cells expressing hKv1.3. The assay is classed as cell-based. As to conditions: inhibition measured at end of 1000 ms pulse, read-out: IC50 of K+ current inhibition, hKv1.3. The source says: As measure of Ifast, peak current was used, whereas, as a measure of Islow, the current value was obtained at the end of the command pulse (see FIG. 1). Values are expressed as mean±S.E.M. For Islow, a dual phase relationship can be observed. […] Kv1.3 channel is the most sensitive channel (around 6-fold more sensitive in comparison to the “next most sensitive one”, the Kv1.2) Kv1.2, Kv1.1 and Kv1.6 show similar, intermediate sensitivities to nitenin. In opposition, Kv1.4 is the less sensitive (˜31 times less sensitive).
Additionally, drug sensitivity to different voltage-activated channels was assessed by studying the drug effect on currents recorded from chinese hamster ovary (CHO) cells stably transfected with different human Kv channel subunits (Kv1.1, Kv1.2, Kv1.3, Kv1.4 and Kv1.6).
The higher sensitivity of nitenin to Islow (rather than Ifast) and the nature of the nitenin sensitive current (see nitenin sensitive current in FIG. 1.b) urged to understand which K^+ channel(s) do underline Islow. By considering which Kv channel subunits are known to be expressed in DRG, and the biophysical nature of the nitenin-sensitive current, nitenin was tested on whole-cell currents recorded from CHO cells expressing hKv1.1, hKv1.2, hKv1.3, hKv1.4 and hKv1.6. […] Current inhibition was measured at the end of the 1000 ms pulse.

In assay [2] the test system is COP rats (CFA injection in the whisker pad of Wistar rats). Kind of assay: chronic orofacial pain (COP) rat model, von Frey filaments. The assay is classed as in vivo. The following applies: I.V. 1 μg/mL of blood. The source says: Values refer to the mechanical sensitivity to face stimulation (whiskers region) using calibrated von Frey Filaments, and consequently reflecting hyperalgesia when hypersensitive (black filled markers—ipsilateral, injured face-side; Open markers—contralateral, uninjured face-side). Dotted line refers to the average value of the ipsilateral face prior to the CFA injection. a) Induction of the model showing that 3 days after operation, the mechanical sensitivity of the ipsilateral face-sides increase markedly, whereas the one associated with the contralateral leg maintains relatively unchanged, similar to baseline values. […]
For efficacy studies, nociception was assessed in all animals from all pain models by regular behavioural monitoring, by quantifying the sensitivity to mechanical stimuli with Von Frey filaments, and consequently reflecting hyperalgesia when hypersensitive. […] Intraperitoneal administration was tested in CFA rats (23 days after CFA injection), with 10 times the nitenin quantity administered by I.V. injections. […] Oral administration of nitenin through stomach gavages (endogastric), with 100 times the quantity administered by I.V. injections, was tested in CCI rats (31 days after surgery). […]

Assay [3] concerns K+ currents of small diameter trigeminal ganglion neurons (sdTGNs). Kind of assay: whole-cell voltage-clamp of K+ currents in sdTGNs. The format is cell-based, rat. How it is done:
The nitenin analogue compounds of the present application were first obtained from the marine sponge Spongia agaracina captured in Sagres, Portugal, but have also been chemically synthesized.
For the electrophysiological recordings of the ex vivo material, voltage-clamp recordings were performed on neurons isolated from rat DRGs (and TGs). Recordings were performed from the soma that often contained the proximal fraction of axon, 1 hour after the end of the cell isolation process (includes enzymatic and mechanical treatment).

In assay [4] the test system is slow currents from large diameter DRG neurons. Kind of assay: slow currents of large diameter DRG neurons. The assay is classed as cell-based, rat. As to conditions: relative to sdDRGNs. The source says:
The K^+ currents affected by the identified compounds, recorded from sdDRGNs (and sdTGNs) by whole-cell voltage-clamp techniques, were object of intensive research by the applicant in the area of pain neurophysiology. The use of rat pain models was fundamental to perform previous target validation, i.e., to determine the K^+ current component differentially expressed in pain conditions. […] The nature of the recorded modulatory effect on the currents was studied by monitoring several biophysical parameters, such as voltage dependencies of activation and inactivation and kinetics. The specificity of the bioactivity was carried out by comparing the pharmacological effect on currents recorded from the sdDRGNs with those in other types of dorsal root ganglia (medium and large diameter DGRs).
Lastly, regarding specificity, it is important to note that the slow currents obtained from large diameter DRG neurons are around 10 times less sensitive to nitenin.

The structures appear in SMILES notation. “Also recorded” adds a separate entry of the source.

T1 sequence (P22001 whole entry): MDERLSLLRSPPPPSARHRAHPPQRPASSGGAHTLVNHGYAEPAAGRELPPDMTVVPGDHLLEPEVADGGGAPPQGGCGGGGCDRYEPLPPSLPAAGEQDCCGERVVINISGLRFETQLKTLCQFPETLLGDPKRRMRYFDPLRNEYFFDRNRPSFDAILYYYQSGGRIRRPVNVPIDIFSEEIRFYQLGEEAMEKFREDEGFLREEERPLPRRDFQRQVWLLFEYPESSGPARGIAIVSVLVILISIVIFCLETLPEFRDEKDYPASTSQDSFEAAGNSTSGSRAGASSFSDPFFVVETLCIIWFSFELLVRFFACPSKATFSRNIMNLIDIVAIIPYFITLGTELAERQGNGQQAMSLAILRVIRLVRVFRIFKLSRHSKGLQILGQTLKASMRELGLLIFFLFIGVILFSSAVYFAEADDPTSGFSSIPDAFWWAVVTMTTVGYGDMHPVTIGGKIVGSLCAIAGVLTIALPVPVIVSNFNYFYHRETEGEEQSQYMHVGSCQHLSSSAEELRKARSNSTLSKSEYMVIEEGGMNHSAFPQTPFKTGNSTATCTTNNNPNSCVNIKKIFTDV

In the case of `C/C(=C\C1C/C(=C/CCc2ccoc2)C(=O)O1)CCCc1ccoc1` (stereo not shown) [nitenin], the IC50 (as a rule, the concentration that gives 50% inhibition) in assay [1] was found to be 190 nM. The “mechanical sensitivity at the whisker pad region (von Frey)” value in assay [2] was “reaching values not different to those obtained during baseline; also recorded: marked reduction of mechanical sensitivity”. Besides, the “effect on K+ currents from sdTGNs” value in assay [3] is reported as “inhibited the K^+ currents”. The “lower sensitivity of slow currents of large diameter DRG neurons” value in assay [4] is on record as “around 10 times”.

For the origin of these results see patent US12336977B2, “Nitenin analogue compounds and their use in the treatment of chronic and acute pain” (SEA4US-BIOTECNOLOGIA E RECURSOS MARINHOS, LDA., priority 2019, dated 2025).
